Results from the OligoGym collection.
After the bases stand the sugars from the 5' end (letter, count) and the backbone: PS all phosphorothioate, else s phosphorothioate and o phosphodiester by linkage. Methylation of C is not given here. e = 2'-O-(2-methoxyethyl) (MOE); k = constrained ethyl (cEt); d = 2'-deoxy (DNA); m = 2'-O-methyl

Target: HSD17B13
Settings: ASO, HepaRG

Sequence	target mRNA inhibition (1 µM) [%]	also measured
TCTTATGTAATAGCCA (sugars k3 d9 k3 e1, PS)	76	target mRNA inhibition (0.02 µM): 15%; target mRNA inhibition (0.078 µM): 18%; target mRNA inhibition (0.313 µM): 25%; target mRNA inhibition (1.25 µM): 65%; target mRNA inhibition (5 µM): 84%
CTGAAATTGATACACC (sugars k3 d1 m1 d8 k3, PS)	71	–
ATGATTGAATTCACTA (sugars k3 d10 k3, PS)	33	–
ATCAAGACATTCTAGC (sugars kkdddddddddkekek, PS)	30	–
TCGCCTAAAGGAGATC (sugars k3 d10 k3, PS)	70	–
TCTTGATGTAGTGGGA (sugars k3 d10 k3, PS)	44	–
GGTGGTAACGGTGATC (sugars k3 d10 k3, PS)	31	–
ACACTAATATTGAGGC (sugars k3 d10 k3, PS)	68	target mRNA inhibition (0.02 µM): 28%; target mRNA inhibition (0.078 µM): 32%; target mRNA inhibition (0.313 µM): 37%; target mRNA inhibition (1.25 µM): 58%; target mRNA inhibition (5 µM): 85%
AGATCGGCTGGATATA (sugars k3 d10 k3, PS)	27	–
GGTCACCTTTCATAAT (sugars k3 d1 m1 d8 k3, PS)	48	–
CTCCTGAGTCTTTCTA (sugars k3 d10 k3, PS)	23	–
GCTAAGTAGTAATTCT (sugars k3 d10 k3, PS)	57	–
GGTCACCTTTCATAAT (sugars k3 d9 k3 e1, PS)	49	–
GCTGAGAGTTATCTGG (sugars k3 d10 k3, PS)	65	–
GCCTAGTTGCAATGAG (sugars k3 d10 k3, PS)	61	–
ATTCATAAACATAGGC (sugars k3 d10 k3, PS)	36	–
TGATTTTGACCTTACC (sugars k3 d10 k3, PS)	11	–
GCATTAGATGGTAAGG (sugars k3 d10 k3, PS)	64	–
ATAGAGTCGGTCACCT (sugars kkdddddddddkekek, PS)	56	–
TTGAATAGCAAGCCAA (sugars kkdddddddddkekek, PS)	27	–
CCTGTGTTAGCTTTAA (sugars kkdddddddddkekek, PS)	62	–
CTAAACATCTCTGGGA (sugars k3 d10 k3, PS)	62	–
AGTCGGTCACCTTTCA (sugars kkdddddddddkekek, PS)	55	–

Sequence	target mRNA inhibition (1 µM) [%]	also measured
CGATGTGGCCATGATT (sugars k3 d10 k3, PS)	44	–
GGCTAAAATGGTCATC (sugars k3 d10 k3, PS)	75	–
TTTAACTACCCTCACA (sugars k3 d10 k3, PS)	0	–
CTTCTATTGTATGAGG (sugars k3 d10 k3, PS)	40	–
ATAACTCTATTGATTG (sugars k3 d10 k3, PS)	39	–
AAAACCGTCAAATAGG (sugars k3 d10 k3, PS)	28	–
CATCUTAAGATACCCA (sugars k3 d1 m1 d8 k3, PS)	56	–
AGCCAAACTGCTACTG (sugars k3 d10 k3, PS)	78	–
TCTGATTACAGCATCA (sugars k3 d10 k3, PS)	48	–
CTCATTTAGCAGCTTG (sugars k3 d10 k3, PS)	70	target mRNA inhibition (0.02 µM): 1%; target mRNA inhibition (0.078 µM): 10%; target mRNA inhibition (0.313 µM): 46%; target mRNA inhibition (1.25 µM): 65%; target mRNA inhibition (5 µM): 90%
TGTGAGAAGGCGGTAT (sugars k3 d10 k3, PS)	20	–
GAGTCGGTCACCTTTC (sugars k3 d1 m1 d8 k3, PS)	55	–
ATGCCAAGCTTTGTGT (sugars k3 d10 k3, PS)	50	–
CCTAUATACATCCAAG (sugars k3 d1 m1 d8 k3, PS)	39	–
GTTGATATTCTGTGGC (sugars k3 d10 k3, PS)	80	target mRNA inhibition (0.02 µM): 23%; target mRNA inhibition (0.078 µM): 42%; target mRNA inhibition (0.313 µM): 53%; target mRNA inhibition (1.25 µM): 87%; target mRNA inhibition (5 µM): 93%
TTCTGTGGCATGGCTA (sugars kkdddddddddkekek, PS)	50	–
ACAGAACCAATATGCT (sugars k3 d10 k3, PS)	40	–
ATGGCTTAATTTTCGG (sugars k3 d10 k3, PS)	33	–
GTGCACTCATTCTGTG (sugars k3 d10 k3, PS)	6	–
CCTTATGTTATCTCAA (sugars k3 d10 k3, PS)	67	–
GGAGATATAACATTAC (sugars k3 d10 k3, PS)	70	target mRNA inhibition (0.02 µM): 10%; target mRNA inhibition (0.078 µM): 10%; target mRNA inhibition (0.313 µM): 42%; target mRNA inhibition (1.25 µM): 68%; target mRNA inhibition (5 µM): 88%
TGACAATGGTTGATAG (sugars kkdddddddddkekek, PS)	37	–
ATCTAGCAACCTCTAT (sugars k3 d10 k3, PS)	12	–

Sequence	target mRNA inhibition (1 µM) [%]	also measured
CTTACATATTGCATAC (sugars k3 d10 k3, PS)	35	–
GAATTATTTCTTGCGA (sugars k3 d10 k3, PS)	61	–
CATAATCTTGTGCTTG (sugars k3 d10 k3, PS)	37	–
CATAAGAGCCAAACTG (sugars k3 d10 k3, PS)	27	–
CAGGGTGGTAACGGTG (sugars kkdddddddddkekek, PS)	49	–
CTCTCCATCATCGATG (sugars k3 d10 k3, PS)	0	–
ATAATTACAACCTGGT (sugars k3 d10 k3, PS)	44	–
GGCACTAAAGGTTTCT (sugars k3 d10 k3, PS)	62	target mRNA inhibition (0.02 µM): 0%; target mRNA inhibition (0.078 µM): 26%; target mRNA inhibition (0.313 µM): 41%; target mRNA inhibition (1.25 µM): 66%; target mRNA inhibition (5 µM): 75%
CAATTATGAATCTGCA (sugars k3 d10 k3, PS)	25	–
TCGAAACTATTCATAT (sugars k3 d10 k3, PS)	64	–
ATTTGCTGCATTAATG (sugars k3 d10 k3, PS)	20	–
TAGAGTCGGTCACCTT (sugars kkdddddddddkekek, PS)	48	–
GTGTAGTCCTAGGGAG (sugars k3 d10 k3, PS)	67	–
CTAGGGAAATCTTTCA (sugars k3 d10 k3, PS)	48	–
CAGAAGTTTTTAAGAG (sugars k3 d10 k3, PS)	30	–
CATTATCCTTACTCCC (sugars k3 d10 k3, PS)	16	–
AACAATCAGGAGTTGC (sugars k3 d10 k3, PS)	31	–
AAGAAATTTGTGAACC (sugars k3 d10 k3, PS)	21	–
AAAATTATGCCTTGTG (sugars k3 d10 k3, PS)	50	–
TAGAATTAAGGGCTAT (sugars k3 d10 k3, PS)	31	–
CTTGATGTAGTGGGAG (sugars k3 d10 k3, PS)	83	target mRNA inhibition (0.02 µM): 0%; target mRNA inhibition (0.078 µM): 4%; target mRNA inhibition (0.313 µM): 21%; target mRNA inhibition (1.25 µM): 62%; target mRNA inhibition (5 µM): 80%
AAACCTTCATGCTAGT (sugars k3 d10 k3, PS)	27	–
TTAGAATAGTCTTCAG (sugars k3 d10 k3, PS)	52	–

Sequence	target mRNA inhibition (1 µM) [%]	also measured
AGTCGGTCACCTTTCA (sugars k3 d1 m1 d8 k3, PS)	61	–
CTTATTGGTAAGTATT (sugars k3 d10 k3, PS)	22	–
AAGGTTAGATTTCATC (sugars k3 d10 k3, PS)	80	target mRNA inhibition (0.02 µM): 1%; target mRNA inhibition (0.078 µM): 14%; target mRNA inhibition (0.313 µM): 60%; target mRNA inhibition (1.25 µM): 64%; target mRNA inhibition (5 µM): 78%
AGGTAGCTTTTGTCCA (sugars k3 d10 k3, PS)	56	–
CTCTTAGCTGTGCACT (sugars k3 d9 k3 e1, PS)	66	target mRNA inhibition (0.02 µM): 0%; target mRNA inhibition (0.078 µM): 20%; target mRNA inhibition (0.313 µM): 0%; target mRNA inhibition (1.25 µM): 39%; target mRNA inhibition (5 µM): 79%
TCATAAAAATCGCTGC (sugars k3 d10 k3, PS)	26	–
GAGTAAACGACTCTGT (sugars k3 d10 k3, PS)	43	–
CTTAAACCTTCCCTGT (sugars k3 d9 k3 e1, PS)	34	–
TGTAGTCCTAGGGAGG (sugars k3 d10 k3, PS)	86	target mRNA inhibition (0.02 µM): 0%; target mRNA inhibition (0.078 µM): 0%; target mRNA inhibition (0.313 µM): 32%; target mRNA inhibition (1.25 µM): 66%; target mRNA inhibition (5 µM): 83%
TGTCCAGGTTGAGATA (sugars k3 d10 k3, PS)	48	–
CTTGAACAGTCTTAAA (sugars kkdddddddddkekek, PS)	38	–
AATGTAAGAAGCCACG (sugars k3 d10 k3, PS)	26	–
ACAGTTGAGTAGTGTA (sugars k3 d10 k3, PS)	72	–
TGTAATAGCCAGTACA (sugars kkdddddddddkekek, PS)	45	–
AAGCTTTGCAGCATTG (sugars k3 d10 k3, PS)	59	–
AGTTAGCAGCTAAAAT (sugars k3 d10 k3, PS)	33	–
TAATAGCCAGTACAGT (sugars k3 d1 m1 d8 k3, PS)	51	–
CTACAGATTGGAATGC (sugars k3 d10 k3, PS)	52	–
GTAAGGTAAAGTCTAA (sugars k3 d10 k3, PS)	37	–
CGATCCTATATACATC (sugars k3 d10 k3, PS)	33	–
CAGTTTTCCTCATGAT (sugars k3 d10 k3, PS)	65	–
GAGTAGTGGAGCCAGA (sugars k3 d10 k3, PS)	44	–
GCTTAGTTCATTGTGA (sugars k3 d10 k3, PS)	45	–
